From US20090326031A1, “ANTIVIRAL USE OF CATIONIC SURFACTANT” (priority 2006, published 2009)

What was measured:
[1] = tested on: Clostridium perfringens ATCC 77454; type: cell-based; conditions: Gram + Bacteria
[2] = tested on: parainfluenza bovine type 3 strain SF-4 (ATCC VR-281); test: activity of LAE against bovine parainfluenzae 3 virus (virus suspension, TCID50); type: cell-based; conditions: LAE 200 ppm
Experimental: (§1) In the following experiments the reduction factor has been calculated.
(§2) This reduction factor is calculated according to the following formula
(§3) R′ presents the reduction factor, v′ represents the volume of the sample of the test compound, a′ is the virus concentration in the added sample (^10log value), v″ is the volume of the final sample, a″ is the virus concentration after treatment (^10log value).
(§4) In the following experiments the clearance factor has been calculated. The clearance factor is calculated according to the following formula: […]
(§5) CL is the elimination factor (clearance factor), q′ is the initial concentration of virus (^10log value), q″ is the final concentration of virus (^10log value).
Eagle minimum essential medium (EMEM) was obtained from Earle (ICN Flow, Rf. 11-100-24), was supplemented with
10% of fetal bovine serum (Biowhittaker, Ref. D14-810F), […] of glutamine (Biowhittaker, Ref. 17-605E), non-essential amino acids (Biowhittaker, Ref. 13-114E), 100 units of penicillin, 100 μg of streptomycin/ml and 1 mM of sodium pyruvate. LAE (CAS 60372-77-2) Lot No. 10234 with a LAE Content of 88.7%.
The investigated strain of the parainfluenza bovine type 3 was SF-4 (ATCC VR-281).
(§6) LAE was investigated at a concentration of 200 ppm.
All experiments were performed at room temperature.
8 ml of deionized water was mixed with 1 ml of the virus suspension. 1 ml of LAE solution (containing 2000 ppm of LAE) was added, leading to a final LAE concentration of 200 ppm.
After 5 and 60 minutes samples for determination were taken. The design of the experiment allowed for conclusions of the effectivity of LAE after contact times of 5 and 60 minutes.
The number of virus particles in the experiment were determined by the quantitative assay TCID50 (infectious dose of cultured tissue).

toxicological studies = type: in vivo; conditions: animals and humans
[3] = tested on: Lactobacillus delbrueckii ssp lactis CECT 372; test: minimum inhibitory concentration; type: cell-based; conditions: Gram + Bacteria
Excerpt: (§7) This compound is remarkable for its inhibitory action over the proliferation of different microorganisms, such as bacteria, fungi and yeasts.

[4] = tested on: Salmonella typhimurium ATCC16028; test: minimum inhibitory concentration; type: cell-based; conditions: Gram − Bacteria
Excerpt: as §7

[5] = tested on: Proteus mirabilis CECT 170; test: minimum inhibitory concentration; type: cell-based; conditions: Gram − Bacteria
Excerpt: as §7

[6] = tested on: Gliocadium virens ATCC 4645; test: minimum inhibitory concentration; type: cell-based; conditions: Fungi
Excerpt: as §7

[7] = tested on: Leuconostoc mesenteroides CETC 912; test: minimum inhibitory concentration; type: cell-based; conditions: Gram + Bacteria
Excerpt: as §7

[8] = tested on: Listeria monocytogenes ATCC 7644; test: minimum inhibitory concentration; type: cell-based; conditions: Gram + Bacteria
Excerpt: as §7

[9] = tested on: Bordetella bronchiseptica ATCC 4617; test: minimum inhibitory concentration; type: cell-based; conditions: Gram − Bacteria
Excerpt: as §7

[10] = tested on: Serratia marcenses CECT 274; test: minimum inhibitory concentration; type: cell-based; conditions: Gram − Bacteria
Excerpt: as §7

[11] = tested on: Arthrobacter oxydans ATCC 8010; test: minimum inhibitory concentration; type: cell-based; conditions: Gram + Bacteria
Excerpt: as §7

[12] = tested on: Alcaligenes faecalis ATCC 8750; test: minimum inhibitory concentration; type: cell-based; conditions: Gram − Bacteria
Excerpt: as §7

[13] = tested on: Klebsiella pneumoniae var pneumoniae CECT 178; test: minimum inhibitory concentration; type: cell-based; conditions: Gram − Bacteria
Excerpt: as §7

[14] = tested on: Citrobacter freundii ATCC 22636; test: minimum inhibitory concentration; type: cell-based; conditions: Gram − Bacteria
Excerpt: as §7

[15] = tested on: Chaetonium globosum ATCC 6205; test: minimum inhibitory concentration; type: cell-based; conditions: Fungi
Excerpt: as §7

[16] = tested on: Penicillium chrysogenum CECT 2802; test: minimum inhibitory concentration; type: cell-based; conditions: Fungi
Excerpt: as §7

[17] = tested on: Aureobasidium pullulans ATCC 9348; test: minimum inhibitory concentration; type: cell-based; conditions: Fungi
Excerpt: as §7

[18] = tested on: Penicillium funiculosum CECT 2914; test: minimum inhibitory concentration; type: cell-based; conditions: Fungi
Excerpt: as §7

[19] = tested on: Bacillus cereus var mycoide ATCC 11778; test: minimum inhibitory concentration; type: cell-based; conditions: Gram + Bacteria
Excerpt: as §7

[20] = tested on: Candida albicans ATCC 10231; test: minimum inhibitory concentration; type: cell-based; conditions: Yeast
Excerpt: as §7

[21] = tested on: Saccharomyces cerevisiae ATCC 9763; test: minimum inhibitory concentration; type: cell-based; conditions: Yeast
Excerpt: as §7

[22] = tested on: Aspergillus niger ATCC14604; test: minimum inhibitory concentration; type: cell-based; conditions: Fungi
Excerpt: as §7

[23] = tested on: Pseudomonas aeruginosa ATCC 9027; test: minimum inhibitory concentration; type: cell-based; conditions: Gram − Bacteria
Excerpt: as §7

[24] = tested on: Enterobacter aerogenes CECT 689; test: minimum inhibitory concentration; type: cell-based; conditions: Gram − Bacteria
Excerpt: as §7

[25] = tested on: Rhodotorula rubra CECT 1158; test: minimum inhibitory concentration; type: cell-based; conditions: Yeast
Excerpt: as §7

[26] = tested on: Mycobacterium phlei ATCC 41423; test: minimum inhibitory concentration; type: cell-based; conditions: Gram + Bacteria
Excerpt: as §7

[27] = tested on: Bacillus subtilis ATCC 6633; test: minimum inhibitory concentration; type: cell-based; conditions: Gram + Bacteria
Excerpt: as §7

Escherichia coli 0157H7 = test: minimum inhibitory concentration; type: cell-based; conditions: Gram − Bacteria
Excerpt: as §7

[28] = tested on: Micrococcus luteus ATCC 9631; test: minimum inhibitory concentration; type: cell-based; conditions: Gram + Bacteria
Excerpt: as §7

[29] = tested on: Staphylococcus aureus ATCC 6538; test: minimum inhibitory concentration; type: cell-based; conditions: Gram + Bacteria
Excerpt: as §7

[30] = tested on: Escherichia coli ATCC 8739; test: minimum inhibitory concentration; type: cell-based; conditions: Gram − Bacteria
Excerpt: as §7

Herpes virus type 1 = test: activity of LAE against Herpes virus type 1; type: cell-based, Herpes simplex virus; conditions: LAE 200 ppm
Experimental: as §1, §2, §3, §4, §5
The virus which was investigated was the type Simplex virus of the subfamily Alphaherpesvirinae in the family Herpesviridae.
The conditions for the determination are similarly chosen according to the ones of example 1.
as §6

Vaccinia virus = type: cell-based; conditions: LAE 200 ppm
metabolism in rats = type: in vivo; conditions: eventually excreted as carbon dioxide and urea

CCCCCCCCCCCC(=O)N[C@@H](CCCN=C(N)N)C(=O)OCC.Cl [LAE, ethyl ester of the lauramide of the arginine monohydrochloride]
M.I.C. [1]: 16 ppm | Clearance factor ([2]; 60 min contact, 10log values): ≧6.29 ± 0.32 | Reduction factor ([2]; 60 min contact, 10log values): ≧6.46 ± 0.32 | remaining virus after treatment for 60 minutes ([2]; 60 minutes): no remaining virus organisms were detected | Virus concentration 60 min after addition of LAE ([2]; room temperature, 10log value, TCID50, before addition 8.09 ± 0.33): ≦1.63 | toxicity (toxicological studies): completely harmless to animals and humans | M.I.C. [3]: 16 ppm | M.I.C. [4]: 32 ppm | M.I.C. [5]: 32 ppm | M.I.C. [6]: 32 ppm | M.I.C. [7]: 32 ppm | M.I.C. [8]: 10 ppm | M.I.C. [9]: 128 ppm | M.I.C. [10]: 32 ppm | M.I.C. [11]: 64 ppm | M.I.C. [12]: 64 ppm | M.I.C. [13]: 32 ppm | M.I.C. [14]: 64 ppm | M.I.C. [15]: 16 ppm | M.I.C. [16]: 128 ppm | M.I.C. [17]: 16 ppm | M.I.C. [18]: 16 ppm | M.I.C. [19]: 32 ppm | M.I.C. [20]: 16 ppm | M.I.C. [21]: 32 ppm | M.I.C. [22]: 32 ppm | M.I.C. [23]: 64 ppm | M.I.C. [24]: 32 ppm | M.I.C. [25]: 16 ppm | M.I.C. [26]: 2 ppm | M.I.C. [27]: 16 ppm | M.I.C. (Escherichia coli 0157H7): 20 ppm | M.I.C. [28]: 128 ppm | M.I.C. [29]: 32 ppm | M.I.C. [30]: 32 ppm | Virus concentration 60 min after addition of LAE (Herpes virus type 1; 10log value, before addition 7.94 ± 0.37): ≦1.70 | Clearance factor (Herpes virus type 1; 60 min contact, 10log values): ≧6.24 ± 0.37 | Reduction factor (Herpes virus type 1; 60 min contact, 10log values): ≧6.18 ± 0.36 | remaining virus after treatment for 60 minutes (Herpes virus type 1; 60 minutes): no remaining virus organisms were detected | Virus concentration 60 min after addition of LAE (Vaccinia virus; 10log value, before addition 5.94 ± 0.34): 2.40 | living virus after treatment for 5 minutes (Vaccinia virus; 5 minutes): great reduction of the number of living microorganisms | Clearance factor (Vaccinia virus; 60 min contact, 10log values): 3.54 ± 0.34 | Reduction factor (Vaccinia virus; 60 min contact, 10log values): 3.92 ± 0.36 | living virus after treatment for 60 minutes (Vaccinia virus; 60 minutes): substantial decrease of the number of living Vaccinia virus organisms | absorption and metabolism (metabolism in rats): fast absorption and metabolisation into naturally-occurring amino acids and the fatty acid lauric acid
